Patent publication US5077195A, “Polypeptides complementary to peptides or proteins having an amino acid sequence or nucleotide coding sequence at least partially known and methods of design therefor” (Board of Reagents, The University of Texas System, priority 1986, dated 1991)
Several values for one entry are separate records, joined by “and”; a condition that tells them apart may be missing. Equal values may be shown once. Blank lines part the entries; values can stand above or below the compound they belong to. Where no end group is shown, it is not given here.

How the values were obtained:
LHRH = LHRH (Homo sapiens, UniProt P01148); assay: Reverse hemolytic plaque assay, LHRH-stimulated LH release from pituitary cells; assay type: cell-based
Description: A reverse hemolytic plaque assay (Smith, et al.), Method in Enzymology, 124, p.
Plaques were analyzed by determining plaque area with an image analysis (Bioquant or Image Technology Corp. Model 300) of 125×-500× microscopic enlargements.

I^125 ACTH (1-39) = biological target: T1, I^125 ACTH (1-39) (Homo sapiens, UniProt P01189); assay: ^125 I-ACTH binding to peptide-coated microtiter wells; settings: for CPM bound ^125 I-ACTH: Table 10; for CPM Bound ^125 I-ATCH: Table 11
T1 construct: I^125 ACTH (1-39) (New England Nuclear Boston, MA); purchased New England Nuclear (Boston, MA)
T1 sequence (P01189 138-176 limits assumed): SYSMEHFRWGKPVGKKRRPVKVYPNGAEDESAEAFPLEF
Description: Utilizing techniques described in Example 1B, polyvinyl microtiter wells were coated with 3'-5' HTCA from a 1 mM solution thereof or with BSA.
The BSA and 3'-5' HTCA coated wells were washed and then treated with one of three solutions of I^125 ACTH (1-39) (New England Nuclear Boston, MA) having different concentrations. After a forty five minute incubation period the solution was removed and the microtiter wells extensively washed. The microtiter wells were separated and assayed for iodine^125content in a Beckman Gamma 5500 gamma counter. Bound ^125 I-ACTH was measured in duplicate at three concentrations in the absence and presence of excess unlabelled ACTH.
Utilizing the cRNA sequence and HTCA sequence shown in Table 8 of Example 1A, a series of peptides having a carboxy-terminal portion of the HTCA amino acid were synthesized. A pentamer (5-mer) contained the amino acid sequence: H2 N-Phe-His-Gly-Val-Arg-COOH. A decamer (10-mer) contained the amino acid sequence: H2 N-[…]COOH. A twenty membered peptide (20-mer) contained the amino acids sequence: H2 N-[…] Val-Arg-COOH. Each of thes peptides was used to coat microtiter wells and the coated wells tested for the ability to bind ^125 I-ACTH as described in Example 1C.
A 24-mer HTCA variant (R-HTCA) with reversed amino acid sequence directionality (amino-terminal and carboxy-terminal ends being reversed) was synthesized and had the following sequence: H2 N-[…] Arg-His-Leu-His-Val-Gly-COOH. The well-coating and ^125 I-ACTH binding procedures were performed as described in Example 1-C and the resultant data shown in Table 11.

ACTH (1-24) = biological target: T2, ACTH (1-24) (Homo sapiens, UniProt P01189); assay: ELISA binding of ACTH to HTCA-coated microtiter wells
T2 construct: 10 ug synthetic ACTH (1-24) in PBS-Tween buffer; purchased Organon (West Orange, N.J.); host or cells: chemical synthesis
Description: From 1 to 25 micrograms (ug) per well of HTCA or insulin in carbonate-bicarbonate coating buffer were added to 96 well round bottom microtiter plates and incubated at 4° C. for 8 hr. The plates were then washed with phosphate buffered saline (PBS)-Tween 20 (Sigma Chemical Co., St. Louis, Mo.) buffer.
To the insulin-coated wells and to some of the HTCA-coated wells was added 10 ug synthetic ACTH (1-24) in PBS-Tween buffer. Control wells (HTCA alone) contained only PBS-Tween. The plates were incubated at room temperature for 2 hr. and then washed three times with PBS-Tween buffer. Rabbit antisera directed against the amide of synthetic ACTH 1-13 (Accurate Biochemicals, Westbury N.Y.) was added to each well and the plates were incubated for 1 hr at room temperature. Following 3 washes with PBS-Tween buffer, alkaline phosphatase-conjugated goat anti-rabbit Ig G (Miles Laboratories, Elkharbt, Ind.) in PBS-Tween buffer (1:300 dilution) was added. After inculation at room temperature for 1 hr, the plates were washed three times with PBS-Tween buffer and each well was treated with 200 microliters (ul) of p-nitrophenyl phosphate (1 mg/ml in carbonate-bicarbonate buffer) for 11/2 hr. at room temperature. The enzymatic reaction was then stopped by the addition of 3N NaOH (50 ul) to each well and the optical absorbance of p-nitrophenol the alkaline phosphatase product, was measured at 405 nm. The ACTH bound to the coated microtiter wells was measured by this enzyme-linked immunoabsorbent assay (ELISA).
A microtiter plate was prepared and treated generally as described above but was coated with 3.7 nmol/well HTCA. To each coated well was added a solution of 3.7 nmol ACTH combined with the amounts of HTCA designated on the abscissa in FIG. 4.

^125 I-ACTH = biological target: T3, ^125 I-ACTH (Homo sapiens, UniProt P01189); assay: Solid-phase binding of ^125 I-ACTH to 5'-3' and 3'-5' complementary peptides; settings: wells coated 2 mg/ml
T3 construct: ACTH plates+immunized rabbit immunoglobulin
T3 sequence (P01189 138-176 limits assumed): T1 sequence (P01189 138-176 limits assumed)
Description: A solid-phase binding assay was used to determine the ability of both the 5'-to-3' and the 3'-to-5'-complementary-RNA-strand peptides (see Examples 1A and 1C) to bind ^125 I-ACTH. The peptides were diluted in phosphate-buffered saline (140 mM-NaCl/3 mM-KCl/0.1% NaN3 /20 mM-phosphate buffer, pH 7.4) to 2 mg/ml, and 0.2 ml/well was placed into poly(vinyl chloride) micro-titre plates (Becton and Dickinson, Oxnard, CA, U.S.A.). After 18 h at 4° C., unbound peptide was removed by washing three times with phosphate-buffered saline containing 0.1% bovine serum albumin (Sigma Chemical Co., St. Louis, MO, U.S.A.). ^125 I-ACTH was diluted to various concentrations with phosphate-buffered saline containing 0.1% bovine serum albumin and incubated in peptide-coated wells for 60 minutes at 4° C. […] After incubation, unbound radiolabel was washed out with phosphate-buffered saline containing 0.1% bovine serum albumin, and the radioactivity of individual wells was measured by gamma-radiation counting. The amount of specifically bound radioactivity was determined by blocking ^125 I-ACTH binding with unlabelled ACTH. Additional controls included coating wells with insulin or bovine serum albumin (2 mg/ml) before the addition of the ^125 I-ACTH.

[1] = conc ^125 I-ATCH, + excess ACTH

ACTH-HTCA binding that was specific (ACTH (1-24); 3.7 nmol/well HTCA coating, competition with soluble HTCA): about 90% | Kd (ACTH (1-24); wells coated with 3.7 nmol/well HTCA, 3.7 nmol ACTH, read-out: Kd (Scatchard analysis) of ACTH-HTCA binding): 1900 nM
Compound: GVHLHRAPLLAHRLAPAEVFHGVR [HTCA]

CPM bound ^125 I-ACTH (I^125 ACTH (1-39); 1:3 dilution ^125 I-ATCH): 613 CPM and 625 CPM
Compound: HRAPLLAHRLAPAEVFHGVR [20-mer]

binding of ^125 I-ACTH to coated wells (in words) (I^125 ACTH (1-39)): significant affinity for ACTH | CPM Bound ^125 I-ATCH (I^125 ACTH (1-39); 1:9 dil. ^125 I-ATCH): 1,101 CPM and 1,161 CPM | CPM Bound ^125 I-ATCH (I^125 ACTH (1-39); 1:9 dil. ^125 I-ATCH, + Excess ACTH): 65 CPM and 69 CPM | CPM Bound ^125 I-ATCH (I^125 ACTH (1-39); conc ^125 I-ATCH): 10,392 CPM and 10,709 CPM
Compound: RVGHFVEAPALRHALLPARHLHVG [R-HTCA]

The next lines start with the compound.

Compound: C[C@H](N)C(=O)NCC(=O)N[C@H]1CSSC[C@@H](C(=O)O)NC(=O)[C@H](CO)NC(=O)[C@H]([C@@H](C)O)NC(=O)[C@H](Cc2ccccc2)NC(=O)[C@H]([C@@H](C)O)NC(=O)[C@H](CCCCN)NC(=O)[C@H](Cc2c[nH]c3ccccc23)NC(=O)[C@H](Cc2ccccc2)NC(=O)[C@H](Cc2ccccc2)NC(=O)[C@H](CC(N)=O)NC(=O)[C@H](CCCCN)NC1=O [Somatostatin, reference compound]
plaque area, percentage response to control assay (LHRH; 5 × 10^-10 M LHRH + Somatostatin 10^-4 M, Exp. 1 (Pre)): 103%

Compound: APAEVFHGVR [10-mer]
CPM bound ^125 I-ACTH (I^125 ACTH (1-39); conc ^125 I-ATCH): 8,927 CPM and 9,072 CPM | CPM bound ^125 I-ACTH (I^125 ACTH (1-39); [1]): 345 CPM and 350 CPM

Compound: FHGVR [5-mer, H2 N-Phe-His-Gly-Val-Arg-COOH]
CPM bound ^125 I-ACTH (I^125 ACTH (1-39); 1:3 dilution ^125 I-ATCH): 3,514 CPM and 3,655 CPM | CPM bound ^125 I-ACTH (I^125 ACTH (1-39); 1:3 dilution ^125 I-ATCH, + excess ACTH): 97 CPM and 95 CPM | CPM bound ^125 I-ACTH (I^125 ACTH (1-39); 1:9 dilution ^125 I-ATCH): 995 CPM and 993 CPM | CPM bound ^125 I-ACTH (I^125 ACTH (1-39); [1]): 233 CPM and 245 CPM

Compound: SRAQSIGPVL [5CA-LHRH, LEU--VAL--PRO--GLY--ILE--SER--GLN--ALA--ARG--SER]
plaque area, percentage response to control assay (LHRH; 5CA-LHRH alone 10^-5 M, Exp. 3): 2.7% | plaque area, percentage response to control assay (LHRH; 5CA-LHRH alone 10^-6 M, Exp. 3): 0.5% | plaque area, percentage response to control assay (LHRH; 5CA-LHRH alone 10^-7 M, Exp. 3): 0.5% | plaque area, percentage response to control assay (LHRH; 5 × 10^-10 M LHRH + 10^-4 M, Exp. 1 (Pre)): 77% | plaque area, percentage response to control assay (LHRH; LHRH + 10^-4 M, Exp. 2 (No)): 61% | plaque area, percentage response to control assay (LHRH; LHRH + 10^-4 M, Exp. 4 (Pre)): 52% | plaque area, percentage response to control assay (LHRH; LHRH + 10^-4 M, Exp. 5 (No)): 52% | plaque area, percentage response to control assay (LHRH; LHRH + 10^-5 M, Exp. 1 (Pre)): 82% | plaque area, percentage response to control assay (LHRH; LHRH + 10^-5 M, Exp. 2 (No)): 52% | plaque area, percentage response to control assay (LHRH; LHRH + 10^-5 M, Exp. 3 (Pre)): 68% | plaque area, percentage response to control assay (LHRH; LHRH + 10^-5 M, Exp. 4 (Pre)): 63% | plaque area, percentage response to control assay (LHRH; LHRH + 10^-5 M, Exp. 5 (No)): 70% | plaque area, percentage response to control assay (LHRH; LHRH + 10^-6 M, Exp. 1 (Pre)): 110% | plaque area, percentage response to control assay (LHRH; LHRH + 10^-6 M, Exp. 2 (No)): 74% | plaque area, percentage response to control assay (LHRH; LHRH + 10^-6 M, Exp. 3 (Pre)): 98% | plaque area, percentage response to control assay (LHRH; LHRH + 10^-6 M, Exp. 4 (Pre)): 81% | plaque area, percentage response to control assay (LHRH; LHRH + 10^-6 M, Exp. 5 (No)): 81% | plaque area, percentage response to control assay (LHRH; LHRH + 10^-7 M, Exp. 1 (Pre)): 101% | plaque area, percentage response to control assay (LHRH; LHRH + 10^-7 M, Exp. 2 (No)): 74% | plaque area, percentage response to control assay (LHRH; LHRH + 10^-7 M, Exp. 3 (Pre)): 88% | plaque area, percentage response to control assay (LHRH; LHRH + 10^-7 M, Exp. 4 (Pre)): 78% | plaque area, percentage response to control assay (LHRH; LHRH + 10^-7 M, Exp. 5 (No)): 115% | plaque area, percentage response to control assay (LHRH; LHRH + 10^-8 M, Exp. 1 (Pre)): 105% | plaque area, percentage response to control assay (LHRH; LHRH + 10^-8 M, Exp. 2 (No)): 83% | plaque area, percentage response to control assay (LHRH; LHRH + 10^-8 M, Exp. 4 (Pre)): 96% | plaque area, percentage response to control assay (LHRH; LHRH + 10^-8 M, Exp. 5 (No)): 92% | plaque area, percentage response to control assay (LHRH; LHRH + 10^-9 M, Exp. 1 (Pre)): 119% | plaque area, percentage response to control assay (LHRH; LHRH + 10^-9 M, Exp. 2 (No)): 84% | plaque area, percentage response to control assay (LHRH; LHRH + 10^-9 M, Exp. 4 (Pre)): 95% | plaque area, percentage response to control assay (LHRH; LHRH + 10^-9 M, Exp. 5 (No)): 123%

Compound: insulin: control coating protein [reference compound]
binding on control plates relative to binding to complementary peptide plates (^125 I-ACTH): less than 5% | binding of ACTH (1-24) to coated microtiter wells (in words) (ACTH (1-24); 10 ug ACTH, ELISA): not by insulin coated microtiter wells
